Results on five compounds are retold here after US9896435B2, “N-pyrrolidinyl,N′-pyrazolyl-urea, thiourea, guanidine and cyanoguanidine compounds as TrkA kinase inhibitors” (Array BioPharma Inc., priority 2012, dated 2018).

Structures are written as SMILES. pIC50: −log10 of the molar value. Bounds are passed on as bounds.

The assay deals with His-tagged recombinant human TrkA (Homo sapiens (Human), UniProt P04629). The experiment in a line: TrkA LanthaScreen Eu Kinase Binding Assay. Particulars: averaged IC50; LanthaScreen binding assay of Example A; read-out: TrkA Enzyme IC50. On the procedure: TrkA binding activity was determined in a TrkA LanthaScreen™ Eu Kinase Binding Assay. 5 nM His-tagged recombinant human TrkA (6HIS tagged cytoplasmic domain from Invitrogen, Catalog No. PV3144) was incubated with 4 nM Alexa-Fluor® Tracer 236 (Invitrogen Cat. No. PV5592), 2 nM biotinylated anti-His (Invitrogen Cat. No. PV6090), and 2 nM europium-labeled Streptavidin (Invitrogen Cat. No. PV5899), in buffer (25 mM MOPS, pH 7.5, 5 mM MgCl2, 0.005% Triton X-100). Three fold serial dilutions of compounds of the invention in DMSO were added to a final percentage of 2% DMSO. After 60-minute incubation at 22° C., the reaction was measured using the EnVision mutlimode plate reader (PerkinElmer) via TR-FRET dual wavelength detection at […]. The percent of control was calculated using a ratiometric emission factor. The IC50 values were determined by fitting a four parameter model to the percent of control data.
Sequence of His-tagged recombinant human TrkA (P04629 440-796): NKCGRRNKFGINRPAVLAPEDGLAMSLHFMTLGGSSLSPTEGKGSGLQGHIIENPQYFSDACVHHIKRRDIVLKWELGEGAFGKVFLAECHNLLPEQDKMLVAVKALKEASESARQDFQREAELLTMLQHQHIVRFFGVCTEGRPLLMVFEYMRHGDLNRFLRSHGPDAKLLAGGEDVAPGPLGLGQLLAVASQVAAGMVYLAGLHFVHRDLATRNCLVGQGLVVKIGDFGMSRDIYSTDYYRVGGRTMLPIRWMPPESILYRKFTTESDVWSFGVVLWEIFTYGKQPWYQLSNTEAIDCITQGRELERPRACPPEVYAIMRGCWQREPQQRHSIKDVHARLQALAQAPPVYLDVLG
Table A provides averaged IC50 values for compounds of the invention when tested in the assay of Example A, where A represents an averaged IC50 value<100 nM.
`COCCN1C[C@@H](NC(=O)Nc2c(C)c(-c3ccc(=O)n(C)c3)nn2-c2ccccc2)[C@H](c2cccc(F)c2)C1` [Example 27, 1-((3S,4R)-4-(3-fluorophenyl)-1-(2-methoxyethyl)pyrrolidin-3-yl)-3-(4-methyl-3-(1-methyl-6-oxo-1,6-dihydropyridin-3-yl)-1-phenyl-1H-pyrazol-5-yl)urea]: the pIC50 is over 7.00.
For `COCCN1C[C@@H](NC(=O)Nc2c(C)c(-c3cnc(=O)n(C)c3)nn2-c2ccccc2)[C@H](c2ccc(F)c(F)c2)C1` [Example 28, 1-((3S,4R)-4-(3,4-difluorophenyl)-1-(2-methoxyethyl)pyrrolidin-3-yl)-3-(4-methyl-3-(1-methyl-2-oxo-1,2-dihydropyrimidin-5-yl)-1-phenyl-1H-pyrazol-5-yl)urea], the pIC50 was over 7.00.
With `COCCN1C[C@@H](NC(=O)Nc2c(C)c(-c3cc(C)c(=O)n(C)c3)nn2-c2ccccc2)[C@H](c2ccc(F)c(F)c2)C1` [Example 29, 1-((3S,4R)-4-(3,4-difluorophenyl)-1-(2-methoxyethyl)pyrrolidin-3-yl)-3-(3-(1,5-dimethyl-6-oxo-1,6-dihydropyridin-3-yl)-4-methyl-1-phenyl-1H-pyrazol-5-yl)urea], the pIC50 is over 7.00.
As for `COCCN1C[C@@H](NC(=O)Nc2c(C)c(S(C)(=O)=O)nn2-c2ccccc2)[C@H](c2ccc(F)c(F)c2)C1` [Example 30, 1-((3S,4R)-4-(3,4-difluorophenyl)-1-(2-methoxyethyl)pyrrolidin-3-yl)-3-(4-methyl-3-(methylsulfonyl)-1-phenyl-1H-pyrazol-5-yl)urea], the figure is over 7.00.
The result for `COCCN1C[C@@H](NC(=O)Nc2c(C)c(C(C)=O)nn2-c2ccccc2)[C@H](c2ccc(F)c(F)c2)C1` [Example 31, 1-(3-acetyl-4-methyl-1-phenyl-1H-pyrazol-5-yl)-3-((3S,4R)-4-(3,4-difluorophenyl)-1-(2-methoxyethyl)pyrrolidin-3-yl)urea] reads over 7.00.
